Assay results from patent US11851631B2, “Household product delivering cooling sensations” (TAKASAGO INTERNATIONAL CORPORATION, priority 2016, dated 2023).

Columns and labels:
human TRPM8 = molecular target: T1, human TRPM8 (Homo sapiens, UniProt Q7Z2W7); assay: TRPM8 activation, Fluo-8 calcium fluorescence (FLIPR) in HEK-293 cells; type: cell-based; conditions: HEK-293 cells stably transfected with human TRPM8; for EC50: normalised to WS3 EC100
T1 construct: expressed in transfected cells; host or cells: HEK-293
Protocol: HEK-293 (Human Embryonic Kidney) cells stably transfected with human TRPM8 were grown in a culture medium of EMEM (minimum Essential Medium Eagle) with Earl's salts balanced salt solution (Lonza catalogue No BE12-125F), 5 mL of 200 mM Ultraglutamine 1 (Lonza Catalogue No BE17-605E/U1), 5 mL of 100× Penicillin/Streptomycin (Lonza Catalogue No DE17-602E) 50 mL of Fetal bovine serum (Euroclone Cat No ECS0180L) 2 mL of 100 mg/mL Genticin sulphate (G418 sulphate InvivoGen CatAnt-gn-5).
10,000 cells/well were seeded in a 384 MTP in complete medium. Then after 24 h the culture medium was manually removed. The cells were loaded with 20 μL/well of 0.5× Fluo-8 NW dye in standard Tyrode's buffer (Screen Quest™ Fluo-8 No wash Calcium assay kit supplied by AAT Bioquest catalogue No 26316) The plate was incubated for 1 h at room temperature in the dark. 10 μL/well of test compounds and controls were injected with the FLIPR^TETRA (Molecular Devices) and the emitted fluorescence signal was recorded at 520 nm for 3 min. The compound multiwall plate contained the samples at 8 different doses in quadruplicate data points. The dose response of the samples were performed starting from 100 mM concentration in 100% DMSO with a serial dilution of 1:2 and then diluted in assay buffer at the final concentration of 100 μM, 50 μM, 25 μM, 12.5 μM, 6 μM, 3 μM, 1.5 μM, and 0.7 μM.
In the compound plate was also present a dose response of the reference agonist N ethyl-p-menthane-3-carboxamide (WS3) at 8 concentrations and in duplicate. This reference control dosed as 16 wells (duplicates for each concentration) of reference agonist at EC100 correspond to the MAX signal response (100% activity). There were also 16 wells of blanks i.e. assay buffer without either a test sample or reference agonist which correspond to the MIN signal response (0% activity). MAX and MIN controls are used for data analysis (RZ′ calculation) and normalization of compound activity.
For data analysis the response value is calculated as the maximum signal of the kinetic trace after the injection minus the median of the points before injection and multiplied by the normalization factor (NF). The normalisation factor is the baseline mean of all wells in the plate divided by the baseline of a specific well. […]
The EC50 of the test samples was then calculated using a curve fitting program available within the data analysis software.

panel of 84 subjects = assay: Comparison of sensations between isopulegol and menthoxypropanediol (cool sensation in the nose); type: in vivo, human; conditions: 3% in triethyl citrate, isopulegol compared to menthoxypropanediol, ANOVA p<0.05
Protocol: A panel of 84 subjects was selected to take part in a comparative test between isopulegol (available as Coolact (registered trademark) P) and menthoxypropanediol (CAS 87061-04-9, available as Coolact (registered trademark) 10), both known for their cooling effect on skin.
The samples of isopulegol and menthoxypropanediol were prepared by dilution to 3% in Triethyl Citrate (TEC).
Panelists also had to score whether they perceived a cool sensation in the nose, on a scale of +100 (very cool) to −100 (very hot) with 0 (neutral) on the middle of the scale.

T1 sequence (Q7Z2W7 whole entry): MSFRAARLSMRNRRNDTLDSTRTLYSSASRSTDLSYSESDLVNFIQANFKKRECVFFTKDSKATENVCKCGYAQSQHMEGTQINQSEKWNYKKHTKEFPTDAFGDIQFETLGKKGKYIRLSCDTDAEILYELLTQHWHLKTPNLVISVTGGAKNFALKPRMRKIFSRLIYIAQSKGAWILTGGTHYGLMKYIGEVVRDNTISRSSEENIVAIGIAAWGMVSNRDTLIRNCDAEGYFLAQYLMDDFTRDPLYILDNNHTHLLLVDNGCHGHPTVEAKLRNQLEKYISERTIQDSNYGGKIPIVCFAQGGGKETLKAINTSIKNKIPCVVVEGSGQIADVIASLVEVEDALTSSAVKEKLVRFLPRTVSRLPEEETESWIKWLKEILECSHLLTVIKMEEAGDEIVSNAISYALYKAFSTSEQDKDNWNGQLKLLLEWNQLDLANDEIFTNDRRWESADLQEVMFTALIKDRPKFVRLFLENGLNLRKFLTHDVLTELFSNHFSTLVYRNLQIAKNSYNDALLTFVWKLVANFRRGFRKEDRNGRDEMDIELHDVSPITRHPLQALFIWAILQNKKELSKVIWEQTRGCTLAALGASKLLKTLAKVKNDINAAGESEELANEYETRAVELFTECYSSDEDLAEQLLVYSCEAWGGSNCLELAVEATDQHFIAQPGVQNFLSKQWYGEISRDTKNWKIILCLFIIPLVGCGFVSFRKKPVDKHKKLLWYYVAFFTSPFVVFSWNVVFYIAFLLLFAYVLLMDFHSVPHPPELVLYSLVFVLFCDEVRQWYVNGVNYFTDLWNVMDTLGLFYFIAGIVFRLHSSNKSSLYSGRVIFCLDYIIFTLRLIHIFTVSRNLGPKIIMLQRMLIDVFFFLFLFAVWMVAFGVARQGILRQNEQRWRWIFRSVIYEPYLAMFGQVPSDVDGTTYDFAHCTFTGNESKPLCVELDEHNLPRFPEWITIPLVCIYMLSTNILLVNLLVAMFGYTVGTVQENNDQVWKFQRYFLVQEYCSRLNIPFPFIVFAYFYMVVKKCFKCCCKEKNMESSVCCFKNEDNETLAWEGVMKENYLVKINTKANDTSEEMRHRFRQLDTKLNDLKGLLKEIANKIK

| Compound | TRPM8 activation (in words) (human TRPM8) | cooling perception in the nose (in words) (panel of 84 subjects) | EC50 (human TRPM8) |
| --- | --- | --- | --- |
| C=C(C)[C@@H]1CC[C@@H](C)C[C@H]1O (racemic) [Isopulegol, isopulegol] | activate TRPM8 | improved cooling perception |  |
| CC(C)[C@@H]1CC[C@@H](C)C[C@H]1OCC(O)CO (some centres unmarked) [Menthoxypropanediol, menthoxypropanediol] | activate TRPM8 |  | 7.7 µM |
| CCNC(=O)C1CC(C)CCC1C(C)C (centres unmarked) [WS3, N ethyl-p-menthane-3-carboxamide] |  |  | 6 µM |
